Results on 17 compounds are retold here after patent US11919858B2, “Aminonapthoquinone compounds and pharmaceutical composition for blocking ubiquitination-proteasome system in diseases” (Calgent Biotechnology Co., Ltd., priority 2015, dated 2024).

Data set [1] deals with HCT116 human colorectal adenocarcinoma. The method, then:
MPT0L056 was used to evaluate for activity against the HCT116 human colorectal adenocarcinoma.
However, MPT0E028 was administered orally (p.o.) in 1.0% CMC and 0.5% Tween 80 and given dose at 25 mg/kg daily to end schedule.
Each animal was euthanized when the tumors reached the predetermined endpoint size of 1,000 mm^3. The time to endpoint (TTE) for each mouse was calculated by the following equation:
[formula] where TTE is expressed in days, endpoint volume is in mm^3, b is the intercept, and m is the slope of the line obtained by linear regression of a log-transformed tumor growth data set. The data set is comprised of the first observation that exceeded the study endpoint volume and the three consecutive observations that immediately preceded the attainment of the endpoint volume. The calculated TTE is usually less than the day on which an animal is euthanized for tumor size. […] An animal classified as having died from treatment-related (TR) causes or non-treatment-related metastasis (NTRm) causes was assigned a TTE value equal to the day of death. An animal classified as having died from non-treatment-related (NTR) causes was excluded from TTE calculations.
Treatment efficacy was determined from tumor growth delay (TGD), which is defined as the increase in the median TTE for a treatment group compared to the control group: TGD=T−C, expressed in days, or as a percentage of the median TTE of the control group:
[formula] where: • T=median TTE for a treatment group, • C=median TTE for control Group 1.
Treatment efficacy was also determined from the tumor volumes of animals remaining in the study on the last day, and from the number of regression responses. The MTV(n) is defined as the median tumor volume on D59 in the number of animals remaining, n, whose tumors have not attained the endpoint volume.
Treatment may cause a partial regression (PR) or a complete regression (CR) of the tumor in an animal. […] An animal with a CR at the termination of a study is additionally classified as a tumor-free survivor (TFS).
Animals were weighed daily for the first five days, then twice weekly until the completion of the study. The mice were examined frequently for overt signs of any adverse, drug-related side effects. Acceptable toxicity for the MTD of cancer drugs is defined as a group mean BW loss of 20% or less during the test, and not more than one TR death among ten animals. A death is classified as TR if there is evidence of treatment side effects from clinical signs and/or necropsy or from unknown causes during dosing period or within 10 days of the last dose. A death is classified as NTR if there is no evidence that the death was related to treatment side effects.
The logrank test was used to determine the statistical significance of the difference between the TTE values of two groups, except any NTR deaths. Statistical and graphical analyses were performed with Prism 3.03 (GraphPad) for Windows. The two-tailed statistical analyses were conducted at P=0.05. Kaplan-Meier plots show the percentage of animals remaining in the study versus time. The Kaplan-Meier plots use the same data set as the log rank test. The tumor growth curves show the group median tumor volume, on a log scale as a function of time.

Data set [2] relates to HCT-116. In words: Growth inhibition assay. In kind it is cell-based. Particulars: Homo sapiens, HCT-116; read-out: HCT-116 GI50 (μM) Mean ± S.E. Here is the method: (§1) Cells were seeded in 96-well plastic plates and exposed to MPT0L056 for 48 hours. Cell viability was assessed using the 3-(4,5-dimethylthiazol-2-yl)-2,5-diphenyltetrazolium bromide assay. Growth inhibition was expressed as the percentage of surviving cells in drug-treated versus DMSO-treated control cells.
(§2) The compounds of the invention were subjected to growth inhibition assay.

In data set [3] the test system is HL-60. Put plainly: Growth inhibition assay. Particulars: HL-60; for IC50: Homo sapiens, read-out: HL-60 IC50 (μM) Mean ± S.E. It counts as cell-based. Here is the method: as §1, §2
In data set [4] the test system is Hep 3B. In words: Growth inhibition assay. Particulars: Homo sapiens, Hep3B; read-out: Hep3B GI50 (μM) Mean ± S.E. In kind it is cell-based. Here is the method: as §1, §2
Data set [5] deals with MDA-MB-231. In words: Growth inhibition assay. It counts as cell-based. Particulars: Homo sapiens, MDA-MB-231; read-out: MDA-MB-231 GI50 (μM) Mean ± S.E. The method, then: as §1, §2
Where [6] appears, read: Group 1 vs 2: MPT0E028 25 mg/kg.
Setting [7] is: Group 2: MPT0E028 25 mg/kg po qd to endpoint.

Structures are written as SMILES. Where two headings read alike, the source gives them in different places.

With `O=C(/C=C/c1ccc2c(c1)CCN2S(=O)(=O)c1ccccc1)NO` [MPT0E028, reference compound], in data set [1] (setting [6]), the “Hazard Ratio” value amounted to 3.677, the “Median survival” value was 40.5 and the “Median survival Ratio” value is given as 0.5605. For the same compound, in data set [1] (Group 1 vs 7: 100/25 mg/kg), the “Hazard Ratio” value is recorded as 1.43, the “Median survival” value is on record as 33.95 and the “Median survival Ratio” value came out at 0.6686. Further, in data set [1] (Group 1 vs 8: 50/25 mg/kg), the “Hazard Ratio” value stood at 3.433, the “Median survival” value came to 45.3 and the “Median survival Ratio” value was 0.5011. Besides, in data set [1] (setting [7]), the “MTV (n) Day 59” value was found to be 454 mm^3, the “Median TTE” value was 40.5 days, the T-C was 17.8 days and the “antitumor activity (logrank analysis)” value is “produced significant antitumor activity”. In addition, in data set [1] (Group 2: MPT0E028 25 mg/kg po qd to endpoint, 25 mg/kg), the “% TGD” value came to 78%. For the same compound, the “Logrank Significance” value in data set [1] (Group 2: MPT0E028 25 mg/kg po qd to endpoint, compared to Group 1) is “* (* = P < 0.05)”. Also, in data set [1] (mouse, in vivo, po, 25 mg/kg), the “Day of Max % BW Loss” value was found to be 5 days, the “Max % BW Loss” value is recorded as −7.7%, the “No. of NTR” value is on record as 0 and the “No. of TR” value was determined as 0.
Take `O=C(Nc1ccccn1)c1ccc(CNC2=C(Cl)C(=O)c3ccccc3C2=O)cc1` [MPT0L018, 4-(((3-chloro-1,4-dioxo-1,4-dihydronaphthalen-2-yl)amino)methyl)-N-(pyridin-2-yl)benzamide]: the GI50 in data set [2], in data set [4] and in data set [5] was 10 to 30 µM throughout. In data set [3], the IC50 is 10 to 30 µM.
As to `O=C(Nc1cccnc1)c1ccc(CNC2=C(Cl)C(=O)c3ccccc3C2=O)cc1` [MPT0L055, 4-(((3-chloro-1,4-dioxo-1,4-dihydronaphthalen-2-yl)amino)methyl)-N-(pyridin-3-yl)benzamide], the GI50 in data set [2], in data set [4] and in data set [5] was 10 to 30 µM each time. For the same compound, the IC50 in data set [3] was 10 to 30 µM.
With `O=C(Nc1cnccn1)c1ccc(CNC2=C(Cl)C(=O)c3ccccc3C2=O)cc1` [MPT0L076, 4-(((3-chloro-1,4-dioxo-1,4-dihydronaphthalen-2-yl)amino)methyl)-N-(pyrazin-2-yl)benzamide], the GI50 in data set [2] stood at 5.52 ± 0.66 µM; in data set [4] it was 8.77 ± 0.9 µM; in data set [5], 9.19 ± 0.4 µM. The IC50 in data set [3] came to 7.27 ± 2.98 µM.
Taken in the same sequence, the figures for `O=C(Nc1ccc(F)cc1)c1ccc(CNC2=C(Cl)C(=O)c3ccccc3C2=O)cc1` [MPT0L082] were 10 to 30 µM, 10 to 30 µM, 10 to 30 µM and 10 to 30 µM.
Taken in the same sequence, the figures for `O=C(Nc1ccccc1)c1ccc(CNC2=C(Cl)C(=O)c3ccccc3C2=O)cc1` [MPT0L083, 4-(((3-chloro-1,4-dioxo-1,4-dihydronaphthalen-2-yl)amino)methyl)-N-phenylbenzamide] were 10 to 30 µM, 10 to 30 µM, 10 to 30 µM and 10 to 30 µM.
`O=C(Nc1nccs1)c1ccc(CNC2=C(Cl)C(=O)c3ccccc3C2=O)cc1` [MPT0L085, 4-(((3-chloro-1,4-dioxo-1,4-dihydronaphthalen-2-yl)amino)methyl)-N-(thiazol-2-yl)benzamide]: the GI50 in data set [2], in data set [4] and in data set [5] was 10 to 30 µM each time. Besides, the IC50 in data set [3] came to 8.53 ± 0.55 µM.
Regarding `O=C(Nc1nc2ccccc2[nH]1)c1ccc(CNC2=C(Cl)C(=O)c3ccccc3C2=O)cc1` [MPT0L086, N-(1H-benzo[d]imidazol-2-yl)-4-(((3-chloro-1,4-dioxo-1,4-dihydronaphthalen-2-yl)amino)methyl)benzamide], the figures for the GI50 in data set [2], in data set [4] and in data set [5] were 10 to 30 µM, 10 to 30 µM and 8.88 ± 1.04 µM, respectively. For the same compound, the IC50 in data set [3] is 10 to 30 µM.
As to `O=C(Nc1ccc2[nH]cnc2c1)c1ccc(CNC2=C(Cl)C(=O)c3ccccc3C2=O)cc1` [MPT0L093, N-(1H-benzo[d]imidazol-5-yl)-4-((3-chloro-1,4-dioxo-1,4-dihydronaphthalen-2-ylamino)methyl)benzamide], the GI50 in data set [2], in data set [4] and in data set [5] was 10 to 30 µM in each case. Besides, the IC50 in data set [3] is 10 to 30 µM.
On to `Nc1ccn(C(=O)c2ccc(CNC3=C(Cl)C(=O)c4ccccc4C3=O)cc2)n1` [MPT0L094, 2-(4-(3-amino-1H-pyrazole-1-carbonyl)benzylamino)-3-chloronaphthalene-1,4-dione], for which the GI50 in data set [2], in data set [4] and in data set [5] was 10 to 30 µM throughout. Moreover, the “HL-60 IC50 (μM) Mean ± S.E.” value in data set [3] is on record as 110~30 μM.
Regarding `O=C(Nc1ccc2[nH]ncc2c1)c1ccc(CNC2=C(Cl)C(=O)c3ccccc3C2=O)cc1` [MPT0L097, 4-((3-chloro-1,4-dioxo-1,4-dihydronaphthalen-2-ylamino)methyl)-N-(1H-indazol-5-yl)benzamide], the GI50 in data set [2], in data set [4] and in data set [5] was 10 to 30 µM in each case. In addition, the IC50 in data set [3] lay within 10 to 30 µM.
Turning to `Cc1cnc(NC(=O)c2ccc(CNC3=C(Cl)C(=O)c4ccccc4C3=O)cc2)s1` [MPT0L098, 4-((3-chloro-1,4-dioxo-1,4-dihydronaphthalen-2-ylamino)methyl)-N-(5-methylthiazol-2-yl)benzamide], the GI50 in data set [2], in data set [4] and in data set [5] was 10 to 30 µM throughout. Besides, in data set [3], the half-inhibitory concentration (IC50) came out at 7.06 ± 0.73 µM.
In the case of `Cc1cc(NC(=O)c2ccc(CNC3=C(Cl)C(=O)c4ccccc4C3=O)cc2)n[nH]1` [MPT0L099, 4-((3-chloro-1,4-dioxo-1,4-dihydronaphthalen-2-ylamino)methyl)-N-(5-methyl-3H-pyrazol-3-yl)benzamide], the GI50 in data set [2], in data set [4] and in data set [5] was 10 to 30 µM each time. In data set [3], the IC50 was 10 to 30 µM.
As for `Cc1cc(N)nn1C(=O)c1ccc(CNC2=C(Cl)C(=O)c3ccccc3C2=O)cc1` [MPT0L100, 2-(4-(3-amino-5-methyl-1H-pyrazole-1-carbonyl)benzylamino)-3-chloronaphthalene-1,4-dione], the GI50 in data set [2], in data set [4] and in data set [5] was 10 to 30 µM each time. Further, the IC50 in data set [3] was 10 to 30 µM.
Consider `O=C(Nc1ccncc1[N+](=O)[O-])c1ccc(CNC2=C(Cl)C(=O)c3ccccc3C2=O)cc1` [MPT0L103, 4-((3-chloro-1,4-dioxo-1,4-dihydronaphthalen-2-ylamino)methyl)-N-(3-nitropyridin-4-yl)benzamide], for which the GI50 in data set [2] is 6.12 ± 1.17 µM; in data set [4], 10 to 30 µM; in data set [5], 10 to 30 µM. For the same compound, the IC50 in data set [3] stood at 5.42 ± 0.7 µM.
For the compound `O=C(Nc1ccc2ncccc2c1)c1ccc(CNC2=C(Cl)C(=O)c3ccccc3C2=O)cc1` [MPT0L108, 4-((3-chloro-1,4-dioxo-1,4-dihydronaphthalen-2-ylamino)methyl)-N-(quinolin-6-yl)benzamide], the GI50 in data set [2] is 6.82 ± 0.35 µM; in data set [4], 10 to 30 µM; in data set [5], 10 to 30 µM. Moreover, the IC50 in data set [3] amounted to 8.09 ± 0.57 µM.
Consider `O=C(Nc1cccc2cccnc12)c1ccc(CNC2=C(Cl)C(=O)c3ccccc3C2=O)cc1` [MPT0L109, 4-((3-chloro-1,4-dioxo-1,4-dihydronaphthalen-2-ylamino)methyl)-N-(quinolin-8-yl)benzamide], for which the GI50 in data set [2], in data set [4] and in data set [5] was 10 to 30 µM in each case. Besides, the IC50 in data set [3] came to 6.43 ± 2.44 µM.

As usually defined, the GI50 is the concentration that inhibits growth by half. By IC50 is commonly meant the concentration that gives 50% inhibition.
